Measurements from patent publication US9717709B2, “Substituted pyrazoles as heat shock transcription factor activators” (Duke University, priority 2010, dated 2017).
Blank lines part the entries; values can stand above or below the compound they belong to.

Key:
Hsp90 = assay: competitive binding assay in vitro using biotinylated geldanamycin (GD-B)
Excerpt: Many pharmacological inhibitors of Hsp90 such as geldanamycin and 17-AAG target the amino-terminal ATP binding pocket of Hsp90, thereby inhibiting its chaperone function. To test whether HSF1A has affinity for the Hsp90 ATP-binding pocket, we performed competitive binding assays in vitro using a biotinylated geldanamycin (GD-B) molecule. […] Because other small molecule inhibitors of Hsp90, including celastrol, novobiocin, and EGCG, are thought to bind Hsp90 at the carboxy-terminus Amolins, M and Blagg, B, Mini Rev Med Chem. 2009 9, 140-152, we ascertained whether HSF1A could bind to Hsp90 at a region outside of the ATPbinding pocket. To assay for HSF1A binding to Hsp90, we generated an HSF1A-biotin conjugate (HSF1A-B)) and assayed the ability of HSF1A-B to interact with Hsp90.

mouse model of ALS = details: Kieran et al., Nature Medicine 2004; cited from earlier work

competition with GD-B for Hsp90 binding (Hsp90; at 1 mM and 10 mM): able to compete
Structure (SMILES): C=CCNC1=C2C[C@@H](C)C[C@H](OC)[C@H](O)[C@@H](C)/C=C(\C)[C@H](OC(N)=O)[C@@H](OC)/C=C\C=C(/C)C(=O)NC(=CC1=O)C2=O [17-AAG]

Structure (SMILES): [O-][n+]1cccc(/C(Cl)=N/OC[C@H](O)CN2CCCCC2)c1 [arimoclomal]
disease progression (mouse model of ALS): significantly delays disease progression

competition with GD-B for Hsp90 binding (Hsp90; concentrations 100-fold higher than GD-B): unable to compete
Structure (SMILES): CCc1ccc(S(=O)(=O)Nc2cc(-c3cccs3)nn2-c2ccccc2)cc1 [HSF1A]
